# Patent US11180462B2, “Microbiocidal oxadiazole derivatives” (SYNGENTA PARTICIPATIONS AG, priority 2015, dated 2021)
# What was measured:
# [1] = tested on: Puccinia recondita f. Sp. Tritici; experiment: Fungicidal activity against Puccinia recondita f. sp. tritici / wheat / leaf disc curative (brown rust); format: in vivo; settings: foliar, 24 h, 200 ppm in the applied formulation, wheat leaf segments, curative (applied 1 day after inoculation), compared to untreated control leaf disks, read-out: disease control
# Outline: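 Inoculate cv. Kanzler segments on agar; hold dark, 19° C, 75% RH. Spray diluted formulated compound at day 1. Incubate 12 h light/12 h dark, same temperature and humidity; score % control vs untreated 6–8 days later.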
# [2] = tested on: Phakopsora Pachyrhizi; experiment: Fungicidal activity against Phakopsora pachyrhizi / soybean / leaf disc preventative (Asian soybean rust); format: in vivo; settings: foliar, 200 ppm in the applied formulation, soybean leaf disks, compared to untreated control leaf disks, read-out: disease control
# Outline: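 Preventative soybean leaf-disc test: discs on water agar sprayed with diluted formulated compound, inoculated one day later with spores on the lower surface. Held 24–36 h dark at 20°C, 75% rh, then 12 h light/day; percent disease control versus untreated discs scored 12–14 days after application.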
# [3] = tested on: Glomerella lagenarium (Colletotrichum lagenarium); experiment: Fungicidal activity against Glomerella lagenarium (Colletotrichum lagenarium) liquid culture / cucumber / preventative (anthracnose); format: cell-based; settings: Colletotrichum orbiculare; 20 ppm in the applied formulation; liquid culture (PDB), growth inhibition measured photometrically after 3 to 4 days; compared to untreated control; read-out: disease control
# Outline: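 Photometric read-out of fungal growth after 2–7 days, expressed as percent antifungal activity versus untreated check. Cryo-stored conidia in PDB; compound at 20 ppm; dark, 24 °C, 96% RH.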
# [4] = tested on: Puccinia recondita f. Sp. Tritici; experiment: Fungicidal activity against Puccinia recondita f. sp. tritici / wheat / leaf disc preventative (brown rust); format: in vivo; settings: foliar, 200 ppm in the applied formulation, wheat leaf segments, preventative, compared to untreated control leaf disks, read-out: disease control
# Outline: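 Preventative leaf-segment test, wheat cv. Kanzler on water agar. Spray compound at 200 ppm, inoculate with spores 1 day later; 19° C., 75% rh, 12/12 h light. Read-out: % disease control vs untreated, 7 to 9 days after application.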
SMILES,pest or weed control at 200 ppm [1] [%],pest or weed control at 200 ppm [2] [%],inhibition of growth at 20 ppm [3] [%],pest or weed control at 200 ppm [4] [%]
"CON(Cc1ccc(-c2noc(C(F)(F)F)n2)cc1)C(=O)C1C(C)(C)C1(C)C [Compound 1.14, N-methoxy-2,2,3,3-tetramethyl-N-[[4-[5-(trifluoromethyl)-1,2,4-oxadiazol-3-yl]phenyl]methyl]-cyclopropane-carboxamide]",≥ 80,≥ 80,–,–
"CON(Cc1ccc(-c2noc(C(F)(F)F)n2)cc1)C(=O)C1(c2ccccc2)CC1 [Compound 1.23, N-methoxy-1-phenyl-N-[[4-[5-(trifluoromethyl)-1,2,4-oxadiazol-3-yl]phenyl]methyl]-cyclopropane-carboxamide]",≥ 80,≥ 80,≥ 80,–
"CON(Cc1ccc(-c2noc(C(F)(F)F)n2)cc1)C(=O)c1ccc(Cl)cc1 [Compound 1.71, 4-chloro-N-methoxy-N-[[4-[5-(trifluoromethyl)-1,2,4-oxadiazol-3-yl]phenyl]methyl]-benzamide]",≥ 80,≥ 80,≥ 80,–
"O=C(C1CC1(F)F)N(Cc1ccc(-c2noc(C(F)(F)F)n2)cc1)CC1CC1 (stereo not shown) [Compound 1.207, N-(cyclopropylmethyl)-2,2-difluoroN-[[4-[5-(trifluoromethyl)-1,2,4-oxadiazol-3-yl]phenyl]methyl]-cyclopropane-carboxamide]",≥ 80,≥ 80,≥ 80,–
"CCCC(=O)N(Cc1ccc(-c2noc(C(F)(F)F)n2)cc1)CC1CC1 [Compound 1.210, N-(cyclopropylmethyl)-N-[[4-[5-(trifluoromethyl)-1,2,4-oxadiazol-3-yl]phenyl]methyl]-butanamide]",≥ 80,≥ 80,≥ 80,–
"CCCCON(Cc1ccc(-c2noc(C(F)(F)F)n2)cc1)C(=O)C(C)OC (stereo not shown) [Compound 1.647, N-butoxy-2-methoxy-N-[[4-[5-(trifluoromethyl)-1,2,4-oxadiazol-3-yl]phenyl]methyl]-propanamide]",–,≥ 80,≥ 80,≥ 80
"CC(C)N(Cc1ccc(-c2noc(C(F)(F)F)n2)cc1)C(=O)c1ccccc1Cl [Compound 1.672, 2-chloro-N-isopropyl-N-[[4-[5-(trifluoromethyl)-1,2,4-oxadiazol-3-yl]phenyl]methyl]-benzamide]",–,≥ 80,≥ 80,≥ 80
"O=C(CC(F)(F)F)N(Cc1ccc(-c2noc(C(F)(F)F)n2)cc1)CC(F)(F)F [Compound 1.704, 3,3,3-trifluoro-N-(2,2,2-trifluoroethyl)-N-[[4-[5-(trifluoromethyl)-1,2,4-oxadiazol-3-yl]phenyl]methyl]-propanamide]",–,≥ 80,≥ 80,≥ 80
"O=C(C1CC1(F)F)N(CCO)Cc1ccc(-c2noc(C(F)(F)F)n2)cc1 (stereo not shown) [Compound 1.708, 2,2-difluoro-N-(2-hydroxyethyl)-N-[[4-[5-(trifluoromethyl)-1,2,4-oxadiazol-3-yl]phenyl]methyl]-cyclopropane-carboxamide]",–,≥ 80,≥ 80,≥ 80
"O=C(c1ccccc1Cl)N(CCO)Cc1ccc(-c2noc(C(F)(F)F)n2)cc1 [Compound 1.709, 2-chloro-N-(2-hydroxyethyl)-N-[[4-[5-(trifluoromethyl)-1,2,4-oxadiazol-3-yl]phenyl]methyl]-benzamide]",–,≥ 80,≥ 80,≥ 80
"O=C(OCCN(Cc1ccc(-c2noc(C(F)(F)F)n2)cc1)C(=O)C1CCC1)C1CCC1 [Compound 1.715, 2-[cyclobulanecarbonyl-[[4-[5-(trifluoromethyl)-1,2,4-oxadiazol-3-yl]phenyl]methyl]-amino]ethyl cyclobutane-carboxylate]",–,≥ 80,≥ 80,≥ 80
"COCC(=O)OCCN(Cc1ccc(-c2noc(C(F)(F)F)n2)cc1)C(=O)COC [Compound 1.716, 2-[(2-methoxy-acetyl)-[[4-[5-(trifluoromethyl)-1,2,4-oxadiazol-3-yl]phenyl]methyl]-amino]ethyl 2-methoxyacetate]",–,≥ 80,≥ 80,≥ 80
"CCC(C)C(=O)N(CCO)Cc1ccc(-c2noc(C(F)(F)F)n2)cc1 (stereo not shown) [Compound 1.720, N-(2-hydroxyethyl)-2-methyl-N-[[4-[5-(trifluoromethyl)-1,2,4-oxadiazol-3-yl]phenyl]methyl]-butanamide]",–,≥ 80,≥ 80,≥ 80
"N#CC1(C(=O)N(CCO)Cc2ccc(-c3noc(C(F)(F)F)n3)cc2)CC1 [Compound 1.729, 1-cyano-N-(2-hydroxyethyl)-N-[[4-[5-(trifluoromethyl)-1,2,4-oxadiazol-3-yl]phenyl]methyl]-cyclopropane-carboxamide]",–,≥ 80,≥ 80,≥ 80
"O=C(CC(F)(F)F)N(CCO)Cc1ccc(-c2noc(C(F)(F)F)n2)cc1 [Compound 1.733, 3,3,3-trifluoro-N-(2-hydroxyethyl)-N-[[4-[5-(trifluoromethyl)-1,2,4-oxadiazol-3-yl]phenyl]methyl]-propanamide]",–,≥ 80,≥ 80,≥ 80
"O=C(CC(F)(F)F)OCCN(Cc1ccc(-c2noc(C(F)(F)F)n2)cc1)C(=O)CC(F)(F)F [Compound 1.734, 2-[[4-[5-(trifluoromethyl)-1,2,4-oxadiazol-3-yl]phenyl]methyl-(3,3,3-trifluoropropanoyl)-amino]ethyl 3,3,3-trifluoropropanoate]",–,≥ 80,≥ 80,≥ 80
"CC(=O)N(CCO)Cc1ccc(-c2noc(C(F)(F)F)n2)cc1 [Compound 1.735, N-(2-hydroxyethyl)-N-[[4-[5-(trifluoromethyl)-1,2,4-oxadiazol-3-yl]phenyl]methyl]-acetamide]",–,≥ 80,≥ 80,≥ 80
"O=C(CC1CC1)N(CCO)Cc1ccc(-c2noc(C(F)(F)F)n2)cc1 [Compound 1.736, 2-cyclopropyl-N-(2-hydroxyethyl)-N-[[4-[5-(trifIuoromethyl)-1,2,4-oxadiazol-3-yl]phenyl]methyl]-acetamide]",–,≥ 80,≥ 80,≥ 80
"O=C(CC1CC1)OCCN(Cc1ccc(-c2noc(C(F)(F)F)n2)cc1)C(=O)CC1CC1 [Compound 1.737, 2-[(2-cyclopropylacetyl)-[[4-[5-(trifluoromethyl)-1,2,4-oxadiazol-3-yl]phenyl]methyl]-amino]ethyl 2-cyclopropylacetate]",–,≥ 80,≥ 80,≥ 80
"COC(C)C(=O)N(Cc1ccc(-c2noc(C(F)(F)F)n2)cc1)C1COC1 (stereo not shown) [Compound 1.750, 2-methoxy-N-(oxetan-3-yl)-N-[[4-[5-(trifluoromethyl)-1,2,4-oxadiazol-3-yl]phenyl]methyl]-propanamide]",≥ 80,≥ 80,–,–
"O=C(c1ccccc1Cl)N(O)Cc1ccc(-c2noc(C(F)(F)F)n2)cc1 [Compound 1.754, 2-chloro-N-hydroxy-N-[[4-[5-(trifluoromethyl)-1,2,4-oxadiazol-3-yl]phenyl]methyl]-benzamide]",–,≥ 80,≥ 80,≥ 80
"CC(C)(C)OC(=O)ON(Cc1ccc(-c2noc(C(F)(F)F)n2)cc1)C(=O)OC(C)(C)C [Compound 2.21, [tert-butoxycarbonyl-[[4-[5-(trifluoromethyl)-1,2,4-oxadiazol-3-yl]phenyl]methyl]-amino]tert-butyl carbonate]",–,≥ 80,≥ 80,≥ 80
"CON(Cc1ccc(-c2noc(C(F)(F)F)n2)cc1)C(=O)NC1CCCCC1 [Compound 3.11, 3-cyclohexyl-1-methoxy-1-[[4-[5-(trifluoromethyl)-1,2,4-oxadiazol-3-yl]phenyl]methyl]urea]",–,≥ 80,≥ 80,≥ 80
"CON(Cc1ccc(-c2noc(C(F)(F)F)n2)cc1)C(=O)N(C)C#N [Compound 3.62, 1-cyano-3-methoxy-1-methyl-3-[[4-[5-(trifluoromethyl)-1,2,4-oxadiazol-3-yl]phenyl]methyl]urea]",–,≥ 80,≥ 80,≥ 80
